Patent US9932314B2, “Pyrazole compounds and their use as T-type calcium channel blockers” (IDORSIA PHARMACEUTICALS LTD, priority 2015, dated 2018)

Molecular target: T1, voltage-dependent T-type calcium channel subunit alpha-1G (Cav3.2) (Homo sapiens, UniProt O95180)
T1 construct: expressed in transfected cells; host or cells: HEK293
Test: FLIPR calcium flux assay, HEK293 cells recombinantly expressing Cav3.2
Assay type: cell-based
Settings: Cav3.2-channel, Fluo-4-AM, 3 min incubation, stimulation with 10 mM CaCl2
Method in brief: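 Calcium influx was triggered by adding CaCl2 to 10 mM final, 3 min after compounds in tetraethylammonium-based buffer, pH 7.2, reached Fluo-4-AM-loaded recombinant HEK293 cells. The integrated kinetic fluorescence signal per concentration gave concentration-response curves by non-linear sigmoidal regression.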

T1 sequence (O95180 whole entry): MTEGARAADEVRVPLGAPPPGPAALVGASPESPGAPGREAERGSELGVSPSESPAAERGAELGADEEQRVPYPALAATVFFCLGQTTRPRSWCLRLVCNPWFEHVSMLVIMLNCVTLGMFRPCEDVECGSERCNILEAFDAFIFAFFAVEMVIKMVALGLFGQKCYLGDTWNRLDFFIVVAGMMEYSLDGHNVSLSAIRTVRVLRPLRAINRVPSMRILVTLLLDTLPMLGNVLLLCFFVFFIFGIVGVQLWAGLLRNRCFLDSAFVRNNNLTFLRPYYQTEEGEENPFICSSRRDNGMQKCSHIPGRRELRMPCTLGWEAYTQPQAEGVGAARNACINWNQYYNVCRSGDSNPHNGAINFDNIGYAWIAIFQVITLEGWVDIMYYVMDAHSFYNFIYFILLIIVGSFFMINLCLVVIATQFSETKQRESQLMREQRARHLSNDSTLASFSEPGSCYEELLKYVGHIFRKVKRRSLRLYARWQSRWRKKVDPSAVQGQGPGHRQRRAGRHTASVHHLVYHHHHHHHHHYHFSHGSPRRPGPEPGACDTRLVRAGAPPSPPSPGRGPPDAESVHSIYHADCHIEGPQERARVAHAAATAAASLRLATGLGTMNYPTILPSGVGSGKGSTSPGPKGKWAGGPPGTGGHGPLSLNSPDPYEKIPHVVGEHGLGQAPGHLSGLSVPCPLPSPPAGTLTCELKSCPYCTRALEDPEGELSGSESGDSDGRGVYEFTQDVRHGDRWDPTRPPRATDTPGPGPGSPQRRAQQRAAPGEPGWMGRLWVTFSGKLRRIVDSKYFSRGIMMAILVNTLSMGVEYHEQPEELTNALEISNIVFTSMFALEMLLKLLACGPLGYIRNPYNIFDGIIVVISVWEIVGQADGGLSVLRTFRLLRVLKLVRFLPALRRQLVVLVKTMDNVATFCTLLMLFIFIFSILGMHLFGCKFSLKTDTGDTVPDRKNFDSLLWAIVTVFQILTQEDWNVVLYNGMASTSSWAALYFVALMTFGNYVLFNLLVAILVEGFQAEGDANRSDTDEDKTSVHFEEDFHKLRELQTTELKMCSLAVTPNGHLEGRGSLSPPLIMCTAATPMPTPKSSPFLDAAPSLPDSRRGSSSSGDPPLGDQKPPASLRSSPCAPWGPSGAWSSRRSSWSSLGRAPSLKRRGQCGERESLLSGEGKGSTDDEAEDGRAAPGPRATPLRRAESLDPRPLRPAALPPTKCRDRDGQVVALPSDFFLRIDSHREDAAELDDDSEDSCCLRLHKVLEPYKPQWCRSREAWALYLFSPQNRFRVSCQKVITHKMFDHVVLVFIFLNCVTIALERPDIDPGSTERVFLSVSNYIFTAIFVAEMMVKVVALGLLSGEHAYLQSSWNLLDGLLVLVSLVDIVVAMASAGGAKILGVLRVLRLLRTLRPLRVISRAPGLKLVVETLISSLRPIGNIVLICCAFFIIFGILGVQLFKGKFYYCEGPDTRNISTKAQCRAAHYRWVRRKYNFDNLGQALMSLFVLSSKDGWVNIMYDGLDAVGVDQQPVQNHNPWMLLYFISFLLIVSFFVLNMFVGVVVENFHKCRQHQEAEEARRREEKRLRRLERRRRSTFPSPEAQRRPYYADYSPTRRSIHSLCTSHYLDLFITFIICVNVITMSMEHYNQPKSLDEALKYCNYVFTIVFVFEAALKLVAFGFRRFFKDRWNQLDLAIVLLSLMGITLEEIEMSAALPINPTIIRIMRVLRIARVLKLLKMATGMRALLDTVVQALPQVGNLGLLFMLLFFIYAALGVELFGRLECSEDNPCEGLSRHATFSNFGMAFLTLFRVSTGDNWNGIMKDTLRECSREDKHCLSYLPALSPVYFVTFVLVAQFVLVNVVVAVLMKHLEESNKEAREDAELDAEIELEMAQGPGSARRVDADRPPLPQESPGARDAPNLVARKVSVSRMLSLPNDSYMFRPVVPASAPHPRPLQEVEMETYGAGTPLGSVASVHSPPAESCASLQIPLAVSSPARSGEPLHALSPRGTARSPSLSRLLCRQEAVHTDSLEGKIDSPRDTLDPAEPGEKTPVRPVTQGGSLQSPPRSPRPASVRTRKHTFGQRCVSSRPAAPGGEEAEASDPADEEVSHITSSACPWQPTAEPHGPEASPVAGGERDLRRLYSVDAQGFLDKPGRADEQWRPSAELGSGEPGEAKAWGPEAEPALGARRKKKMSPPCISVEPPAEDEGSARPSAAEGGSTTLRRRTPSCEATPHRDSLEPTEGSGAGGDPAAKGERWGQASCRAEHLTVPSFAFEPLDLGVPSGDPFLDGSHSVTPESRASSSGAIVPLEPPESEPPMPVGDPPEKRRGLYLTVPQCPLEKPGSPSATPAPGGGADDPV

Structure (SMILES)	IC50 [nM]
COC1(c2ccc(CC(=O)Nc3ccn(Cc4cc(F)c(C#N)c(F)c4)n3)cc2)COC1 [Example 359, N-[1-(4-Cyano-3,5-difluoro-benzyl)-1H-pyrazol-3-yl]-2-[4-(3-methoxy-oxetan-3-yl)-phenyl]-acetamide]	212
N#Cc1c(F)cc(Cn2ccc(NC(=O)Cc3ccc(OCC4COC4)cc3)n2)cc1F [Example 360, N-[1-(4-Cyano-3,5-difluoro-benzyl)-1H-pyrazol-3-yl]-2-[4-(oxetan-3-ylmethoxy)-phenyl]-acetamide]	360
CC1(COc2ccc(CC(=O)Nc3ccn(Cc4cc(F)c(C#N)c(F)c4)n3)cc2)COC1 [Example 362, N-[1-(4-Cyano-3,5-difluoro-benzyl)-1H-pyrazol-3-yl]-2-[4-(3-methyl-oxetan-3-ylmethoxy)-phenyl]-acetamide]	117
Cc1ccc(Cn2ccc(NC(=O)Cc3ccc(N4CCC(F)(F)C4)nc3)n2)nc1C#N [Example 366, N-[1-(6-Cyano-5-methyl-pyridin-2-ylmethyl)-1H-pyrazol-3-yl]-2-[6-(3,3-difluoro-pyrrolidin-1-yl)-pyridin-3-yl]-acetamide]	147
Cc1ccc(Cn2ccc(NC(=O)Cc3ccc4c(c3)c(C)nn4C)n2)nc1C#N [Example 368, N-[1-(6-Cyano-5-methyl-pyridin-2-ylmethyl)-1H-pyrazol-3-yl]-2-(1,3-dimethyl-1H-indazol-5-yl)-acetamide]	301
CCn1ncc2cc(CC(=O)Nc3ccn(Cc4ccc(C)c(C#N)n4)n3)ccc21 [Example 370, N-[1-(6-Cyano-5-methyl-pyridin-2-ylmethyl)-1H-pyrazol-3-yl]-2-(1-ethyl-1H-indazol-5-yl)-acetamide]	578
Cc1ccc(Cn2ccc(NC(=O)Cc3ccc(N4CCCC4)nc3)n2)nc1C#N [Example 373, N-[1-(6-Cyano-5-methyl-pyridin-2-ylmethyl)-1H-pyrazol-3-yl]-2-(6-pyrrolidin-1-yl-pyridin-3-yl)-acetamide]	349
Cc1ccc(Cn2ccc(NC(=O)Cc3ccc(OC4CC(F)(F)C4)cc3)n2)nc1C#N [Example 374, N-[1-(6-Cyano-5-methyl-pyridin-2-ylmethyl)-1H-pyrazol-3-yl]-2-[4-(3,3-difluoro-cyclobutoxy)-phenyl]-acetamide]	107
CC1(C)Cc2cc(CC(=O)Nc3ccn(Cc4ccc(C#N)cn4)n3)ccc2O1 [Example 378, N-[1-(5-Cyano-pyridin-2-ylmethyl)-1H-pyrazol-3-yl]-2-(2,2-dimethyl-2,3-dihydro-benzofuran-5-yl)-acetamide]	249
CC1(C)COc2ccc(CC(=O)Nc3ccn(Cc4ccc(C#N)cn4)n3)cc21 [Example 379, N-[1-(5-Cyano-pyridin-2-ylmethyl)-1H-pyrazol-3-yl]-2-(3,3-dimethyl-2,3-dihydro-benzofuran-5-yl)-acetamide]	658
CC1(C)Cc2ccc(CC(=O)Nc3ccn(Cc4ccc(C#N)cn4)n3)cc2O1 [Example 380, N-[1-(5-Cyano-pyridin-2-ylmethyl)-1H-pyrazol-3-yl]-2-(2,2-dimethyl-2,3-dihydro-benzofuran-6-yl)-acetamide]	214
COC1(c2ccc(CC(=O)Nc3ccn(Cc4ccc(C#N)cn4)n3)cc2)CC1 [Example 384, N-[1-(5-Cyano-pyridin-2-ylmethyl)-1H-pyrazol-3-yl]-2-[4-(1-methoxy-cyclopropyl)-phenyl]-acetamide]	128

Continued, values first:

IC50 [nM]	Structure (SMILES)
80	N#Cc1c(F)cc(Cn2ccc(NC(=O)Cc3ccc(OCC4(F)COC4)cc3)n2)cc1F [Example 361, N-[1-(4-Cyano-3,5-difluoro-benzyl)-1H-pyrazol-3-yl]-2-[4-(3-fluoro-oxetan-3-ylmethoxy)-phenyl]-acetamide]
51	N#Cc1c(F)cc(Cn2ccc(NC(=O)Cc3ccc(OCC4CC(F)(F)C4)cc3)n2)cc1F [Example 363, N-[1-(4-Cyano-3,5-difluoro-benzyl)-1H-pyrazol-3-yl]-2-[4-(3,3-difluoro-cyclobutylmethoxy)-phenyl]-acetamide]
62	CC1(COc2ccc(CC(=O)Nc3ccn(Cc4cc(F)c(C#N)c(F)c4)n3)cc2)CC(F)(F)C1 [Example 364, N-[1-(4-Cyano-3,5-difluoro-benzyl)-1H-pyrazol-3-yl]-2-[4-(3,3-difluoro-1-methyl-cyclobutylmethoxy)-phenyl]-acetamide]
18	N#Cc1nc(Cn2ccc(NC(=O)Cc3ccc(C4(C(F)(F)F)CC4)cc3)n2)ccc1F [Example 365, N-[1-(6-Cyano-5-fluoro-pyridin-2-ylmethyl)-1H-pyrazol-3-yl]-2-[4-(1-trifluoromethyl-cyclopropyl)-phenyl]-acetamide]
10	Cc1cc(CC(=O)Nc2ccn(Cc3ccc(C)c(C#N)n3)n2)ccc1OCC(F)(F)F [Example 367, N-[1-(6-Cyano-5-methyl-pyridin-2-ylmethyl)-1H-pyrazol-3-yl]-2-[3-methyl-4-(2,2,2-trifluoro-ethoxy)-phenyl]-acetamide]
64	Cc1ccc(Cn2ccc(NC(=O)Cc3ccc4c(c3)c(C)cn4C)n2)nc1C#N [Example 369, N-[1-(6-Cyano-5-methyl-pyridin-2-ylmethyl)-1H-pyrazol-3-yl]-2-(1,3-dimethyl-1H-indol-5-yl)-acetamide]
13	Cc1ccc(Cn2ccc(NC(=O)Cc3ccc(C(C)(C)C)cc3)n2)nc1C#N [Example 371, 2-(4-tert-Butyl-phenyl)-N-[1-(6-cyano-5-methyl-pyridin-2-ylmethyl)-1H-pyrazol-3-yl]-acetamide]
38	Cc1ccc(Cn2ccc(NC(=O)Cc3ccc(C4(C(F)(F)F)CC4)cc3)n2)nc1C#N [Example 372, N-[1-(6-Cyano-5-methyl-pyridin-2-ylmethyl)-1H-pyrazol-3-yl]-2-[4-(1-trifluoromethyl-cyclopropyl)-phenyl]-acetamide]
20	CC(C)(c1ccc(CC(=O)Nc2ccn(Cc3ccc(C#N)cn3)n2)cc1)C(F)(F)F [Example 376, N-[1-(5-Cyano-pyridin-2-ylmethyl)-1H-pyrazol-3-yl]-2-[4-(2,2,2-trifluoro-1,1-dimethyl-ethyl)-phenyl]-acetamide]
25	Cc1ccc(Cn2ccc(NC(=O)Cc3ccc(C4(C)CC4)cc3)n2)nc1C#N [Example 377, N-[1-(6-Cyano-5-methyl-pyridin-2-ylmethyl)-1H-pyrazol-3-yl]-2-[4-(1-methyl-cyclopropyl)-phenyl]-acetamide]
54	Cc1ccc(CC(=O)Nc2ccn(Cc3ccc(C#N)cn3)n2)cc1OCC(F)(F)F [Example 381, N-[1-(5-Cyano-pyridin-2-ylmethyl)-1H-pyrazol-3-yl]-2-[4-methyl-3-(2,2,2-trifluoro-ethoxy)-phenyl]-acetamide]
114	N#Cc1ccc(Cn2ccc(NC(=O)Cc3ccc(OCC(F)(F)F)c(F)c3)n2)nc1 [Example 382, N-[1-(5-Cyano-pyridin-2-ylmethyl)-1H-pyrazol-3-yl]-2-[3-fluoro-4-(2,2,2-trifluoro-ethoxy)-phenyl]-acetamide]
44	CC(C)c1ccc(CC(=O)Nc2ccn(Cc3ccc(C#N)c(C(F)F)n3)n2)cc1 [Example 385, N-[1-(5-Cyano-6-difluoromethyl-pyridin-2-ylmethyl)-1H-pyrazol-3-yl]-2-(4-isopropyl-phenyl)-acetamide]
69	CC(C)c1ccc(CC(=O)Nc2ccn(Cc3cc(C(F)F)c(C#N)cn3)n2)cc1 [Example 386, N-[1-(5-cyano-4-difluoromethyl-pyridin-2-ylmethyl)-1H-pyrazol-3-yl]-2-(4-isopropyl-phenyl)-acetamide]
